# ChEMBL document CHEMBL4007388, “Synthesis and antiproliferative activity of monocationic arylthiophene derivatives” (Eur J Med Chem, 2017)
# How the values were obtained:
# [1] = Antioxidant activity assessed as superoxide dismutase-like activity by measuring inhibition of superoxide radical anion production at 2 uM by NBT reduction assay relative to control; format: functional
# Escherichia coli = assay: Induction of Escherichia coli genomic DNA cleavage after 1 hr by agarose gel electrophoresis method
# TK-10 = assay: Growth inhibition of human TK10 cells incubated for 48 hrs by sulforhodamine B assay; format: functional; conditions: TK-10, 48 h
# HCT-15 = assay: Growth inhibition of human HCT15 cells incubated for 48 hrs by sulforhodamine B assay; format: functional; conditions: HCT-15, 48 h
# SNB-19 = assay: Growth inhibition of human SNB19 cells incubated for 48 hrs by sulforhodamine B assay; format: functional; conditions: SNB-19, 48 h
# ACHN = assay: Growth inhibition of human ACHN cells incubated for 48 hrs by sulforhodamine B assay; format: functional
# MDA-MB-468 = assay: Growth inhibition of human MDA-MB-468 cells incubated for 48 hrs by sulforhodamine B assay; format: functional; conditions: MDA-MB-468, 48 h
# OVCAR-3 = assay: Growth inhibition of human OVCAR3 cells incubated for 48 hrs by sulforhodamine B assay; format: functional; conditions: OVCAR-3, 48 h
# Homo sapiens = species on record: Homo sapiens; assay: Inhibition of PTK in human MCF7 cells at 1 uM preincubated for 2 hrs followed by poly-Glu-Tyr substrate addition by ELISA relative to control; format: cell-based
# U-251 = assay: Growth inhibition of human U251 cells incubated for 48 hrs by sulforhodamine B assay; format: functional; conditions: U-251, 48 h
# M14 = assay: Growth inhibition of human M14 cells incubated for 48 hrs by sulforhodamine B assay; format: functional; conditions: M14, 48 h
# SK-MEL-2 = assay: Growth inhibition of human SK-MEL-2 cells incubated for 48 hrs by sulforhodamine B assay; format: functional; conditions: SK-MEL-2, 48 h
# RPMI-8226 = assay: Growth inhibition of human RPMI8226 cells incubated for 48 hrs by sulforhodamine B assay; format: functional; conditions: RPMI-8226, 48 h
# MOLT-4 = assay: Growth inhibition of human MOLT4 cells incubated for 48 hrs by sulforhodamine B assay; format: functional; conditions: MOLT-4, 48 h
# NCI-H23 = assay: Growth inhibition of human NCI-H23 cells incubated for 48 hrs by sulforhodamine B assay; format: functional; conditions: NCI-H23, 48 h
# HCT-116 = assay: Growth inhibition of human HCT116 cells incubated for 48 hrs by sulforhodamine B assay; format: functional; conditions: HCT-116, 48 h
# [2] = Growth inhibition of human NCI60 cells at 10 uM after 48 hrs by SRB assay relative to control; values are per cent of control; conditions: NCI60, 48 h
# MDA-MB-435 = assay: Growth inhibition of human MDA-MB-435 cells incubated for 48 hrs by sulforhodamine B assay; format: functional; conditions: MDA-MB-435, 48 h
# A549 = assay: Growth inhibition of human A549/ATCC cells incubated for 48 hrs by sulforhodamine B assay; format: functional; conditions: A549, 48 h
# SF-295 = assay: Growth inhibition of human SF295 cells incubated for 48 hrs by sulforhodamine B assay; format: functional; conditions: SF-295, 48 h
# HOP-62 = assay: Growth inhibition of human HOP62 cells incubated for 48 hrs by sulforhodamine B assay; format: functional; conditions: HOP-62, 48 h
# K562 = assay: Growth inhibition of human K562 cells incubated for 48 hrs by sulforhodamine B assay; format: functional; conditions: K562, 48 h
# SK-OV-3 = assay: Growth inhibition of human SKOV3 cells incubated for 48 hrs by sulforhodamine B assay; format: functional; conditions: SK-OV-3, 48 h
# CCRF-CEM = assay: Growth inhibition of human CCRF-CEM cells incubated for 48 hrs by sulforhodamine B assay; format: functional
# NCI/ADR-RES = assay: Growth inhibition of human NCI/ADR-RES cells incubated for 48 hrs by sulforhodamine B assay; format: functional
# PC-3 = assay: Growth inhibition of human PC3 cells incubated for 48 hrs by sulforhodamine B assay; format: functional; conditions: PC-3, 48 h
# SF-539 = assay: Growth inhibition of human SF539 cells incubated for 48 hrs by sulforhodamine B assay; format: functional; conditions: SF-539, 48 h
# WI-38 = assay: Cytotoxicity against human WI38 cells assessed as reduction in cell viability after 24 hrs by MTT assay; format: cell-based; conditions: WI-38, 24 h
# MCF7 = assay: Growth inhibition of human MCF7 cells incubated for 48 hrs by sulforhodamine B assay; format: functional; conditions: MCF7, 48 h
# OVCAR-8 = assay: Growth inhibition of human OVCAR8 cells incubated for 48 hrs by sulforhodamine B assay; format: functional; conditions: OVCAR-8, 48 h
# SF-268 = assay: Growth inhibition of human SF268 cells incubated for 48 hrs by sulforhodamine B assay; format: functional; conditions: SF-268, 48 h
# HCC 2998 = assay: Growth inhibition of human HCC2998 cells incubated for 48 hrs by sulforhodamine B assay; format: functional; conditions: HCC 2998, 48 h
# COLO 205 = assay: Growth inhibition of human COLO205 cells incubated for 48 hrs by sulforhodamine B assay; format: functional; conditions: COLO 205, 48 h
# T47D = assay: Growth inhibition of human T47D cells incubated for 48 hrs by sulforhodamine B assay; format: functional
# SW-620 = assay: Growth inhibition of human SW620 cells incubated for 48 hrs by sulforhodamine B assay; format: functional; conditions: SW-620, 48 h
# HOP-92 = assay: Growth inhibition of human HOP92 cells incubated for 48 hrs by sulforhodamine B assay; format: functional; conditions: HOP-92, 48 h
# BT-549 = assay: Growth inhibition of human BT549 cells incubated for 48 hrs by sulforhodamine B assay; format: functional; conditions: BT-549, 48 h
# WISH = assay: Cytotoxicity against human WISH cells assessed as reduction in cell viability after 24 hrs by MTT assay; format: cell-based
# SR = assay: Growth inhibition of human SR cells incubated for 48 hrs by sulforhodamine B assay; format: functional
# HT-29 = assay: Growth inhibition of human HT-29 cells incubated for 48 hrs by sulforhodamine B assay; format: functional; conditions: HT-29, 48 h
# SK-MEL-28 = assay: Growth inhibition of human SK-MEL-28 cells incubated for 48 hrs by sulforhodamine B assay; format: functional; conditions: SK-MEL-28, 48 h
# LOX IMVI = assay: Growth inhibition of human LOXIMVI cells incubated for 48 hrs by sulforhodamine B assay; format: functional
# CAKI-1 = assay: Growth inhibition of human Caki1 cells incubated for 48 hrs by sulforhodamine B assay; format: functional; conditions: CAKI-1, 48 h
# KM12 = assay: Growth inhibition of human KM12 cells incubated for 48 hrs by sulforhodamine B assay; format: functional; conditions: KM12, 48 h
# Hs-578T = assay: Growth inhibition of human Hs 578T cells incubated for 48 hrs by sulforhodamine B assay; format: functional
# DU-145 = assay: Growth inhibition of human DU145 cells incubated for 48 hrs by sulforhodamine B assay; format: functional; conditions: DU-145, 48 h
# UACC-62 = assay: Growth inhibition of human UACC62 cells incubated for 48 hrs by sulforhodamine B assay; format: functional; conditions: UACC-62, 48 h
# SK-MEL-5 = assay: Growth inhibition of human SK-MEL-5 cells incubated for 48 hrs by sulforhodamine B assay; format: functional; conditions: SK-MEL-5, 48 h
# 786-0 = assay: Growth inhibition of human 786-O cells incubated for 48 hrs by sulforhodamine B assay; format: functional; conditions: 786-0, 48 h
# NCI-H226 = assay: Growth inhibition of human NCI-H226 cells incubated for 48 hrs by sulforhodamine B assay; format: functional; conditions: NCI-H226, 48 h
# UACC-257 = assay: Growth inhibition of human UACC257 cells incubated for 48 hrs by sulforhodamine B assay; format: functional; conditions: UACC-257, 48 h
# NCI-H460 = assay: Growth inhibition of human NCI-H460 cells incubated for 48 hrs by sulforhodamine B assay; format: functional; conditions: NCI-H460, 48 h
# NCI-H522 = assay: Growth inhibition of human NCI-H522 cells incubated for 48 hrs by sulforhodamine B assay; format: functional; conditions: NCI-H522, 48 h
# SN12C = assay: Growth inhibition of human SN12C cells incubated for 48 hrs by sulforhodamine B assay; format: functional
# HL-60(TB) = assay: Growth inhibition of human HL-60(TB) cells incubated for 48 hrs by sulforhodamine B assay; format: functional; conditions: HL-60, 48 h
structure (smiles),measurement,setting,value
N#Cc1ccc(-c2ccc(-c3ccc(Cl)cc3)s2)cc1F,inhibition,[1],35.3%
CN(C)c1ccc(-c2ccc(-c3ccc(C(=N)N)cc3)s2)cc1,inhibition,[1],58%
same,Activity,Escherichia coli,Dose-dependent effect
N#Cc1ccc(-c2ccc(-c3ccccc3)s2)cc1F,inhibition,[1],37.9%
N=C(N)c1ccc(-c2ccc(-c3cc(Cl)cc(Cl)c3)s2)cc1,GI50,TK-10,1870 nM
same,GI50,HCT-15,255 nM
same,GI50,SNB-19,1200 nM
same,GI50,ACHN,1890 nM
same,GI50,MDA-MB-468,1030 nM
same,GI50,OVCAR-3,1700 nM
same,inhibition,Homo sapiens,19 to 36%
same,GI50,U-251,254 nM
same,GI50,M14,1540 nM
same,GI50,SK-MEL-2,1990 nM
same,GI50,RPMI-8226,639 nM
same,GI50,MOLT-4,1180 nM
same,GI50,NCI-H23,1750 nM
same,GI50,HCT-116,468 nM
same,growth percent at 10 µM,[2],-70.3%
same,GI50,MDA-MB-435,1520 nM
same,GI50,A549,1520 nM
same,GI50,SF-295,1380 nM
same,GI50,HOP-62,1690 nM
same,GI50,K562,225 nM
same,GI50,SK-OV-3,454 nM
same,GI50,CCRF-CEM,1540 nM
same,GI50,NCI/ADR-RES,1930 nM
same,GI50,PC-3,1750 nM
same,GI50,SF-539,1970 nM
same,IC50,WI-38,138000 nM
same,inhibition,[1],62.3%
same,GI50,MCF7,193 nM
same,GI50,OVCAR-8,2420 nM
same,GI50,SF-268,1630 nM
same,GI50,HCC 2998,634 nM
same,GI50,COLO 205,304 nM
same,GI50,T47D,1480 nM
same,GI50,SW-620,318 nM
same,GI50,HOP-92,1710 nM
same,GI50,BT-549,2050 nM
same,Activity,Escherichia coli,Dose-dependent effect
same,IC50,WISH,156000 nM
same,GI50,SR,284 nM
same,GI50,HT-29,379 nM
same,GI50,SK-MEL-28,1710 nM
same,GI50,LOX IMVI,155 nM
same,GI50,CAKI-1,1510 nM
same,GI50,KM12,698 nM
same,GI50,Hs-578T,2050 nM
same,GI50,DU-145,970 nM
same,GI50,UACC-62,1550 nM
same,GI50,SK-MEL-5,1600 nM
same,GI50,786-0,1310 nM
same,GI50,NCI-H226,2090 nM
same,GI50,UACC-257,2480 nM
same,GI50,NCI-H460,375 nM
same,GI50,NCI-H522,2350 nM
same,GI50,SN12C,1570 nM
same,GI50,HL-60(TB),1070 nM
N=C(N)c1ccc(-c2ccc(-c3cccs3)s2)cc1F,growth percent at 10 µM,[2],-72.5%
"N=C(N)c1ccc(-c2ccc(-c3cccs3)s2)cc1 [4-(2,2'-BITHIOPHENE-5-YL)BENZAMIDINE]",growth percent at 10 µM,[2],83.9%
COc1ccc(-c2ccc(-c3ccc(C#N)c(F)c3)s2)cc1,inhibition,[1],35%
CN(C)c1ccc(-c2ccc(-c3ccc(C(=N)N)c(F)c3)s2)cc1,inhibition,[1],56.7%
same,Activity,Escherichia coli,Dose-dependent effect
O=c1[nH]cc(F)c(=O)[nH]1 [FLUOROURACIL],IC50,WI-38,9300 nM
same,IC50,WISH,7100 nM
